Reference: patent US20220162221A1, “Imaging Agents” (UCB Biopharma SRL, priority 2017, published 2022)

Tests used:
D1 receptor [1] = molecular target: T1, D1 receptor (Macaca mulatta, UniProt O77680); test: Autoradiography on NHP brain slices; type: binding
T1 construct: 12 μm brain slices were prepared from fresh frozen NHP brain hemisphere; tissue Motac (Bordeaux, France); host or cells: Macaca mulatta brain sections (caudate putamen)
Procedure: Brain sections from non-human primate (NHP) Macaca mulatta were provided by Motac (Bordeaux, France) where all animal experiments were performed in accordance with european animal use ethical guidance and legislation.
12 μm brain slices were prepared from fresh frozen NHP brain hemisphere and were placed on glass microscopy slide. Autoradiography experiment was performed at room temperature in HBSS HEPES buffer (pH 7.4). NHP brain sections first equilibrated for 30 min before to be incubated for one hour with [^3H]compound in 1% DMSO. Slides were then washed in iced-cold 50 mM Tris-HCl buffer (pH 7.4) for 5 min followed by two washes in iced-cold distilled water. Sections were dried under atmospheric pressure at room temperature. Radioactivity on slice was either measured indirectly after exposure of slides to a phosphor screen, either using a direct counter. In every autoradiography experiments, a [^3H]standard was included for quantification and the NSB was defined as the residual binding of [^3H]compound observed in the presence of 10 μM non-labeled compound.

human D1R = human D1R (Homo sapiens, UniProt P21728); test: Radioligand binding on HEK hD1R membranes with or without D1 PAM; design: expressed in transfected cells; host or cells: HEK cells, transient transfection, pcDNA3.1; membrane preparation
Chain of human D1R (P21728 whole entry): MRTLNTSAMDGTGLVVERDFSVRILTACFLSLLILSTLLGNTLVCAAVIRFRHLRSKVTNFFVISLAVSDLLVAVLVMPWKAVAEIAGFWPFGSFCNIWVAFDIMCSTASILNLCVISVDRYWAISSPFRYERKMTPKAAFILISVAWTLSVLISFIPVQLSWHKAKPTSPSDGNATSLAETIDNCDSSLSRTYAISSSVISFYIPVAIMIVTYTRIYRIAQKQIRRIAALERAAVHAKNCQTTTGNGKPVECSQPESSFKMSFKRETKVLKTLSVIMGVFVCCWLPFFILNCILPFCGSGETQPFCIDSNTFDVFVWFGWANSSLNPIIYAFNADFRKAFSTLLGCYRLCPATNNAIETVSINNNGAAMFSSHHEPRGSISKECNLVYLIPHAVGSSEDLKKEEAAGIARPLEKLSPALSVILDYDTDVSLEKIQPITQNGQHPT
Procedure: Transient transfection of human dopamine D1R was performed with pcDNA3.1 vector in human embryonic kidney cells (HEK hD1R).
The membrane of HEK hD1R cells were used to measure radioligand binding. 48 hours post transfection, cells were pelleted by centrifugation at 1,500 g and 4° C. for 10 min. Pellet was washed once with ice-cold phosphate buffered saline solution (PBS) and centrifuged as described just above. Pellet was homogenized in a buffer containing 15 mM Tris-HCl, 0.3 mM ethylene diamine tetraacetic acid, 1 mM ethylene glycol tetraacetic acid, 2 mM MgCl2 (pH 7.5) and complemented with protease inhibitor cocktail. The homogenate was freeze-thawed twice and equilibrated at 25° C. followed by a 10 min DNAse (10 U/ml) treatment. Subsequently, the solution was centrifuged at 40,000 g and 4° C. for 30 min. Finally, the pellet was resuspended in 20 mM Tris-HCl buffer (pH 7.4) containing 250 mM sucrose and store at −80° C. until D1 radioligand binding assay. […] At the end of the incubation period, the protein-bound radioligand was recovered by filtration through pre-soaked GF/B glass fiber filters. Filters were washed with at least 4 times the assay volume of ice-cold 50 mM Tris-HCl buffer (pH 7.4). […] The filters were dried and the radioactivity determined by liquid scintillation.
Competition/potentiation binding experiments were carried out at constant (−)-(Ic) concentration (1-4 nM) and 10 increasing concentrations of (−)-(Ic) or compound b (10^−10 M to 10^−5 M).

D1 receptor [2] = test: In vivo PET imaging in cynomolgus monkey
Procedure: Experiment was performed in a cynomolgus monkey (Female, body weight 6.02 kg). The monkeys were sedated using intramuscular injection of ketamine and kept anesthetized using a mixture of sevoflurane, oxygen and medical air for the duration of the experiment. A baseline scan was performed following intravenous administration of 141 MBq of (−)-(Ia) at a specific activity of 795 GBq/μmol and PET images of the brain were acquired using the Siemens HRRT PET scanner (Siemens Preclinical Solutions, Knoxville, Tenn.).
(§1) Data were acquired for 123 min and binned into sinograms with the following frame timing: 9×20 sec; 3×1 min; 5×3 min; and 17×6 min. Regions of interest used in this study were caudate nucleus, putamen, cerebellum, frontal cortex, occipital cortex, globus pallidus, midbrain, ventral striatum, thalamus and temporal cortex. Registration parameters were obtained to apply the regions of interests to the PET scan and regional time-activity curves (TACs) were generated. Venous blood samples were withdrawn at 4, 15, 30, 60, 90, 120 minutes after (−)-(Ie) administration for metabolite analysis.

[3] = Metabolite profile by radio-HPLC of venous blood samples; type: in vivo, cynomolgus monkey; details: for metabolites detected (words): venous blood, radio-HPLC
Procedure: as §1
The profile of metabolites of (−)-Ia was determined by radio-HPLC analysis of the venous blood samples collected post-administration at several timepoints. The parent fraction in plasma is 85% at 15 minutes, 60% at 30 minutes and still about 45% at 60 minutes.

hD1R in SK-N-MC cells = hD1R in SK-N-MC cells (Homo sapiens, UniProt P21728); test: cAMP HTRF D1 functional assay; details: for Erel: relative efficacy compared to dopamine maximum response, SK-N-MC cells
Chain of hD1R in SK-N-MC cells (P21728 whole entry): as above
Procedure: The reaction was terminated by consecutive additions of 10 μL d2 detection reagent and the cryptate reagent both diluted in lysis buffer. After a period of 60 min at room temperature, changes in HTRF emission ratio were determined and transformed in [cAMP]i using a standard curve.

D1 receptor [4] = test: In vivo potentiation PET imaging with D1 PAM; design: species or system cynomolgus monkeys (Macaca fascicularis); details: FIG. 5, Compound-B 20 mg/kg
Procedure: Two cynomolgus monkeys (Macaca fascicularis) housed at the MPI Research (Mattawan, Mich.), were used as research subjects for the in vivo potentiation PET studies.
Each animal was anesthetized with propofol iv bolus (2.5-5.0 mk/kg) and maintained with propofol iv Continuous Rate Infusion (CRI, 0.1-0.6 mg/kg/min). for at least 30 minutes prior to initiation of Compound-B i.v. dose administration. Several dose levels were administered. […]
Following Compound (−)-Ib administration, arterial blood samples were drawn from the central iliac artery prior to the dosing with Compound (−)-Ib and at 13 time points up to 120 min post-injection of Compound (−)-Ib. All blood samples were collected in anticoagulant tubes and stored on wet ice until quantification for radioactivity by gamma counter, measure of Compound (−)-Ib parent fraction in plasma over time by HPLC and Compound (−)-Ib ex vivo stability in blood.
Reconstructed dynamic brain PET images were transferred and analyzed using the image processing PMOD software package (PMOD Technologies, Zurich, Switzerland). […] Subsequent PET images acquired during drug studies were aligned first to the baseline images and then transformed into the common MR template space using the already calculated transformation from the baseline images. […]

[5] = saturation binding, 10 μM D1 PAM, HEK hD1R membranes (FIG. 3B)
[6] = Logan reference tissue model, cerebellum as reference

T1 sequence (O77680 whole entry): as the sequence (P21728 whole entry) above, with N311I counted along it

[^3H]-6-(2-(fluoromethyl)-4-(furo[3,2-c]pyridin-4-yloxy)phenyl)-1,5-dimethylpyrimidine-2,4(1H,3H)-dione [(−)-(Ic)]
specific binding in the presence of a D1 PAM (D1 receptor [1]; NHP brain slices, FIG. 4): significantly increased
Total Binding in caudate putamen (words) (D1 receptor [1]; NHP brain slices, listed as (Ic)): significantly binds in caudate putamen
Total Binding in caudate putamen (words) (D1 receptor [1]; NHP brain slices, listed as (−)-Ic): significant binding
non specific binding (D1 receptor [1]; in the presence of 10 μM compound (I), caudate putamen): 20%
effect of D1 PAM on radioligand binding (human D1R; HEK hD1R membranes (FIG. 3)): significantly improved binding properties
potentiation of radioligand binding by D1 PAM (human D1R; low nanomolar radioligand concentration (1-4 nM), FIG. 3C): > 50%
decrease of KD by D1 PAM (human D1R; [5]): 20%
increase of Bmax by D1 PAM (human D1R; [5]): 45%

Cc1c(-c2ccc(Oc3nccc4occc34)cc2CF)n([11CH3])c(=O)[nH]c1=O (single isomer, unassigned) [(−)-(Ia), [^11C]-6-(2-(fluoromethyl)-4-(furo[3,2-c]pyridin-4-yloxy)phenyl)-1,5-dimethylpyrimidine-2,4(1H,3H)-dione]
peak uptake SUV (D1 receptor [2]; 5-10 minutes post-administration, across brain regions, iv): 3.5-4
binding potential (BPND), caudate (D1 receptor [2]; [6]): 0.94
binding potential (BPND), putamen (D1 receptor [2]; [6]): 0.87
SUV in caudate and putamen (D1 receptor [2]; at 60 minutes): about 2
SUV in cerebellum (D1 receptor [2]; at 60 minutes): about 1
parent fraction in plasma ([3]; at 15 minutes): 85%
parent fraction in plasma ([3]; at 30 minutes): 60%
parent fraction in plasma ([3]; at 60 minutes): about 45%
metabolites detected (words) ([3]; listed as (Ia)): no associated lipophilic metabolite
metabolites detected (words) ([3]; listed as (−)-Ia): only hydrophilic metabolites unlikely to cross the blood-brain barrier have been detected

Cc1c(-c2ccc(Oc3nccc4occc34)cc2CF)n(C)c(=O)[nH]c1=O (single isomer, unassigned) [Compound (−)-(I), 6-(2-(fluoromethyl)-4-(furo[3,2-c]pyridin-4-yloxy)phenyl)-1,5-dimethylpyrimidine-2,4(1H,3H)-dione]
EC50 (hD1R in SK-N-MC cells): 5.01 nM
agonist-like effect on D1 receptor (hD1R in SK-N-MC cells; cAMP HTRF): D1 partial agonist-like effect
Erel (hD1R in SK-N-MC cells): 53 ± 13%
Erel (hD1R in SK-N-MC cells; listed as (−)-I): 53%

Cc1c(-c2ccc(Oc3nccc4occc34)cc2C[18F])n(C)c(=O)[nH]c1=O [(−)-(Ib), [^18]-6-(2-(fluoromethyl)-4-(furo[3,2-c]pyridin-4-yloxy)phenyl)-1,5-dimethylpyrimidine-2,4(1H,3H)-dione]
effect of D1 PAM on tracer binding/uptake in vivo (words) (D1 receptor [4]): significantly improved binding properties
effect of D1 PAM on tracer binding/uptake in vivo (words) (D1 receptor [4]; listed as (−)-Ib): increased uptake

Cc1c(-c2ccc(Oc3nccc4occc34)cc2CF)n(C)c(=O)[nH]c1=O (single isomer, unassigned) [(−)-(Ia), [^11C]-6-(2-(fluoromethyl)-4-(furo[3,2-c]pyridin-4-yloxy)phenyl)-1,5-dimethylpyrimidine-2,4(1H,3H)-dione]
brain uptake pattern (D1 receptor [2]; PET images, summed SUV 33-63 minutes): uptake pattern consistent with the reported distribution of D1-like receptors in the brain
